In experiment [1] the test system is tracheal muscle. The experiment in a line: Tracheal preparations of the guinea pig, blockade of isoproterenol relaxation. It counts as cell-based. Particulars: for blocking effect of the responses to isoproterenol in the trachea: at concentrations as high as 3×10^-5 mol/l; for selectivity for the cardiac beta 1 adrenoceptor: atria vs trachea, in words.
Experiment [2] deals with T1, beta-1 adrenoceptor (Rattus norvegicus, UniProt P18090).
T1 construct: from tissue; host or cells: heart of the pithed rat, in vivo
T1 sequence (P18090 whole entry): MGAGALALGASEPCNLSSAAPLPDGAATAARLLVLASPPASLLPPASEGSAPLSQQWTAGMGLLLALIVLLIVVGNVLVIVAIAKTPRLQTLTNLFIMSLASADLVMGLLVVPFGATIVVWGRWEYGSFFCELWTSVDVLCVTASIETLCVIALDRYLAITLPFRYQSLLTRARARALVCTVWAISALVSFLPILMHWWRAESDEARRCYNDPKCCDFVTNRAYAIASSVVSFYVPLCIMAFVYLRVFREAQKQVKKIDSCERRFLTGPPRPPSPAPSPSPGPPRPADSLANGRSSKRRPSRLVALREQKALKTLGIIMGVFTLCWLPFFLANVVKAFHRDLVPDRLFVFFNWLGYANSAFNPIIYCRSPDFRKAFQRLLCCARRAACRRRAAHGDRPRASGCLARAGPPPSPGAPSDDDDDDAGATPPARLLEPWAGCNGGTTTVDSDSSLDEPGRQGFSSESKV
The experiment in a line: Inhibition of isoproterenol induced tachycardia in the pithed rat. In kind it is in vivo. The following applies: read-out: Effective Dose (ID50).

Experiment [3] has as its target T2, beta adrenoceptor (Cavia porcellus, UniProt H0W3H1).
T2 construct: in the spontaneously beating guinea pig atrium; from tissue; host or cells: guinea pig atrium
The experiment in a line: Inhibition of the positive chronotropic isoproterenol effect in spontaneously beating guinea pig atrium. It counts as cell-based.

Experiment [4] concerns cardiac contractile force. The experiment in a line: Cardiac contractile force in anaesthetised, vagotomized, spinalised cat. Particulars: in words. In kind it is in vivo. How it is done:
In the anaesthetised, vagotomized cat spinalised at the level of second cervical vertebrae the compounds exert an increase in cardiac contractile force at a dose of from about 20 to about 2,500 ug/kg i.v. as measured with a strain gauge arch sewn into the left ventricle. The effect may also be measured as a concentration dependent stimulation of the isolated spontaneously beating guinea pig atrium.

Experimental findings from patent publication US5242943A, “3-aminopropoxyphenyl derivatives, their preparation and pharmaceutical compositions containing them” (Louis; William J., priority 1984, dated 1993) are described below.

T2 sequence (H0W3H1 1-470): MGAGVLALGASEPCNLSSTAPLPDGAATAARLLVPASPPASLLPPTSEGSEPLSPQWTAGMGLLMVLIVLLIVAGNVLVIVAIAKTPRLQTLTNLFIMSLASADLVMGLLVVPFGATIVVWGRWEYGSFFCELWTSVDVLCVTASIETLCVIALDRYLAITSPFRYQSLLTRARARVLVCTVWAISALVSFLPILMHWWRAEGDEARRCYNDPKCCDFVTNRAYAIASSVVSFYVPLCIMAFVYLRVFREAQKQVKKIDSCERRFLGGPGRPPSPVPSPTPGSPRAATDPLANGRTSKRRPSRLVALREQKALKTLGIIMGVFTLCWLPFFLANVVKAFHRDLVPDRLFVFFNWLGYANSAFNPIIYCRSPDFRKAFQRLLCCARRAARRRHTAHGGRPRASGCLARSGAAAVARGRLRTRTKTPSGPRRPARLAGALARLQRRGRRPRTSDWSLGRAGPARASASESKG

On to `CC(C)NCC(O)COc1ccc(CC(N)=O)cc1` (centres unmarked) [Atenolol, reference compound], for which the selectivity in experiment [1] (guinea pig atria vs trachea, known selective beta adrenoceptor blockers) was determined as 20.
With `Cc1cc(OCCOCC2CC2)ccc1OCC(O)CNCCNC(=O)C1CCOCC1` (centres unmarked) [Example 1, 1-(2-Methyl-4-(2-cyclopropylmethoxyethoxy)-phenoxy)-3-(2-(tetrahydropyran-4-yl-carbonylamino)ethylamino)-2-propanol], the ED50 in experiment [2] is 0.1 mg/kg. This molecule also came in with a Kb in experiment [3] of 120 nM.
For `CCCOCCOc1ccc(OCC(O)CNCCNC(=O)C2CCOCC2)c(F)c1` (centres unmarked) [Example 2, 1-(2-fluoro-4-(2-propoxy-ethoxy)phenoxy)-3-(2-(tetrahydropyran-4-yl-carbonylamino)ethylamino)-2-propanol], in experiment [1], the “blocking effect of the responses to isoproterenol in the trachea” value (from here on “blocking effect of the responses”) is recorded as “no blocking effect” and the “selectivity for the cardiac beta 1 adrenoceptor” value was “virtually absolute selectivity”. In addition, the ED50 in experiment [2] was 0.02 mg/kg. The molecule further had a Kb in experiment [3] of 50 nM.
For `CCCOCCOc1ccc(OCC(O)CNCCNC(=O)C2CCOCC2)cc1` (centres unmarked) [Example 3], in that order: “no blocking effect”, “virtually absolute selectivity”, 0.015 mg/kg and 80 nM.
For `CC(C)COCCOc1ccc(OCC(O)CNCCNC(=O)C2CCOCC2)cc1` (centres unmarked) [Example 4] the same measures were “no blocking effect”, “virtually absolute selectivity”, 0.02 mg/kg and 50 nM.
For `O=C(NCCNCC(O)COc1ccc(OCCOCC2CCCC2)cc1)C1CCOCC1` (centres unmarked) [Example 5], in that order: “no blocking effect”, “virtually absolute selectivity”, 0.03 mg/kg and 30 nM.
For `O=C(NCCNCC(O)COc1ccc(OCCOCCc2ccc(F)cc2)cc1)C1CCOCC1` (centres unmarked) [Example 6], in experiment [1], the “blocking effect of the responses” value is listed as “no blocking effect” and the “selectivity for the cardiac beta 1 adrenoceptor” value is “virtually absolute selectivity”. In experiment [2], the ED50 was 0.03 mg/kg. The Kb in experiment [3] was determined as 20 nM.
`O=C(NCCNCC(O)COc1ccc(OCCOCc2ccc(F)cc2)cc1)C1CCOCC1` (centres unmarked) [Example 7]: the ED50 in experiment [2] turned out to be 0.02 mg/kg. The same molecule registered a Kb in experiment [3] of 200 nM.
For `CCCOCCOc1ccc(OCC(O)CNCCNC(=O)C2CCOCC2)c(C#N)c1` (centres unmarked) [Example 8] the same measures were 0.02 mg/kg and 70 nM.
On to `CCCOCCOc1ccc(OC[C@@H](O)CNC(C)CNC(=O)C2CCOCC2)cc1` (stereo partly drawn) [Example 9, (S)-1-(4-(2-propoxyethoxy)phenoxy)-3((R,S)-2-(tetrahydropyran-4-ylcarbonylamino)-1-methylethylamino)-2-propanol], for which the ED50 in experiment [2] amounted to 0.003 mg/kg. Moreover, the “balance between the agonistic and antagonistic activities” value in experiment [4] is recorded as “particularly favourable”. The Kb in experiment [3] was 40 nM.
Take `CCCOCCOc1ccc(OC[C@@H](O)CN[C@H](C)CNC(=O)C2CCOCC2)cc1` [Example 10, (S)-1-(4-(2-propoxyethoxy)phenoxy)-((R)-2-(tetrahydropyran-4-ylcarbonylamino)-1-methylethylamino)-2-propanol]: in experiment [2], the ED50 was 0.0006 mg/kg. Besides, the Kb in experiment [3] stood at 30 nM.
For `CCCOCCOc1ccc(OC[C@@H](O)CN[C@@H](C)CNC(=O)C2CCOCC2)cc1` [Example 11, (S)-1-(4-(2-propoxyethoxy)phenoxy)-3-((S)-2-(tetrahydropyran-4-yl-carbonylamino)-1-methylethylamino)-2-propanol] the same measures were 0.02 mg/kg and 160 nM.
`C[C@H](CNC(=O)C1CCOCC1)NCC(O)COc1ccc(OCCOCC2CCCC2)cc1` (some centres unmarked) [Example 15]: in experiment [1], the “blocking effect of the responses” value is given as “no blocking effect” and the “selectivity for the cardiac beta 1 adrenoceptor” value is on record as “virtually absolute selectivity”. Also, the ED50 in experiment [2] came out at 0.01 mg/kg. This molecule also gave a Kb in experiment [3] of 30 nM.
For `CC(C)COCCOc1ccc(OCC(O)CN[C@H](C)CNC(=O)C2CCOCC2)cc1` (some centres unmarked) [Example 21], the ED50 in experiment [2] worked out at 0.005 mg/kg. In addition, the Kb in experiment [3] stood at 70 nM.
Take `O=C(NCCNCC(O)COc1ccc(O)cc1F)C1CCOCC1` (centres unmarked) [Example 33, 1-(2-fluoro-4-hydroxyphenoxy)-3-[2-(tetrahydropyran-4-ylcarbonylamino)ethylamino]-2-propanol]: the “balance between the agonistic and antagonistic activities” value in experiment [4] is reported as “particularly favourable”.
